From publication PMC7000209, “Novel small molecule modulators of quorum sensing in avian pathogenic Escherichia coli (APEC)” (Virulence, 2018)

Key:
[1] = tested on: APEC O1 in THP-1 cells; experiment: Intracellular survival assay, APEC O1 in THP-1 cells; assay type: cell-based, avian pathogenic E. coli (APEC) O1; conditions: MOI 100, 100 µM, 6 h, vs DMSO treated control
Procedure: (§1) The effect of the selected AI-2 inhibitors on the survival of APEC in macrophage cells was tested as described before. Briefly, HD-11 cells was grown as described above and infected with 1 × 10^7 CFU (MOI = 100) of mid-log phase APEC strains (O78, O1 and O2) at 37 °C for 1 h. Cells were washed with PBS and treated with gentamicin (150 μg/mL) for 1 h to kill the extracellular bacteria. The cells were then washed and incubated with 100 µM of each compound in media containing 10 μg/mL of gentamicin at 37 °C for 6 h. Following treatment, cells were washed, lysed with 0.1% Triton X-100 for 5 min, ten-fold serially diluted in PBS and plated on LB agar plates to determine CFUs. Cells treated with chloramphenicol (40 μg/mL) and 1 μL of 100% DMSO were used as controls. The experiment was conducted two times with four replicates in each experiment. Intracellular survival was expressed as the log change of APEC CFUs in the AI-2 inhibitors treated cells.
(§2) Similarly, the intracellular survival assay was also performed in THP-1 cells (ATCC® TIB-202™) as described above. The THP-1 cells were grown in RPMI 1640 medium (Gibco) supplemented with 10% FBS and 2 mM glutamine. In order to differentiate the THP-1 monocyte to macrophage, 100 nM phorbol myristate acetate (PMA; Sigma-Aldrich) was added to the media. The cells (1.4 × 10^5 cells/well) were grown in a 96-well plate in a 5% CO2 incubator at 37 °C for 48 h, infected with APEC (MOI = 100), treated with each compound and the intracellular bacteria was determined as above.

[2] = tested on: G. mellonella larvae; experiment: Toxicity of SMs in wax moth larvae; assay type: in vivo, Galleria mellonella; conditions: uninfected larvae, 12.5 µg/larva (50 mg/kg), 72 h
Procedure: To confirm that the death of the larvae was not due to the compounds, intrinsic toxicity the AI-2 inhibitors were assessed in a separate experiment. G. mellonella larvae (fifth instar; n = 10) were inoculated with 8.5 µL of SMs (50 mg/kg body weight; 12.5 µg/ larva) into the hemocoel via the last left proleg. Post inoculation, larvae were placed inside sterile petri dishes and incubated in the dark at 37 °C for 72 h and larval survival was monitored every 24 h. Two independent experiments were conducted

[3] = tested on: APEC O1 in HD-11 cells; experiment: Intracellular survival assay, APEC O1 in HD-11 cells; assay type: cell-based, avian pathogenic E. coli (APEC) O1; conditions: MOI 100, 100 µM, 6 h; for reduction of intracellular survival of APEC O1: vs DMSO treated control
Procedure: as §1

[4] = tested on: sheep RBCs; conditions: 1 h, 100 µM
Procedure: (§4) The hemolytic activity of the selected AI-2 inhibitors was determined as described before [56]. Briefly, 200 µL of the 10% RBCs (LAMPIRE Biological Laboratories) suspension in PBS was incubated with 100 μM of each compound for 1 h in a 96-well plate. The plate was then centrifuged at 5000 × g for 5 min, placed on ice for 5 min and the absorbance of the supernatant was measured at 540 nm. PBS, 1% DMSO, and 0.1% Triton X-100 were used as controls. Two independent experiments were conducted in triplicate wells in each experiment.

[5] = tested on: chicken RBCs; conditions: 1 h, 100 µM
Procedure: as §4

[6] = tested on: APEC O78 in HD-11 cells; experiment: Intracellular survival assay, APEC O78 in HD-11 cells; assay type: cell-based, avian pathogenic E. coli (APEC) O78; conditions: MOI 100, 100 µM, 6 h; for reduction of intracellular survival of APEC O78: vs DMSO treated control
Procedure: as §1

[7] = tested on: APEC O2 in THP-1 cells; experiment: Intracellular survival assay, APEC O2 in THP-1 cells; assay type: cell-based, avian pathogenic E. coli (APEC) O2; conditions: MOI 100, 100 µM, 6 h; for reduction of intracellular survival of APEC O2: vs DMSO treated control
Procedure: as §1, §2

[8] = tested on: AI-2 activity of APEC O78; experiment: AI-2 bioluminescence indicator assay (V. harveyi BB170), APEC O78 supernatant; assay type: cell-based, avian pathogenic E. coli (APEC) O78; conditions: Escherichia coli, read-out: AI-2-associated bioluminescence inhibition
[9] = tested on: Caco-2 cells; experiment: Lactate dehydrogenase (LDH) cytotoxicity assay, Caco-2; assay type: cell-based, human; conditions: 100 µM, 24 h
Procedure: (§3) The selected 10 AI-2 inhibitors were evaluated for their toxicity to Caco-2 (ATCC® HTB-37™) using LDH assay. Briefly, Caco-2 cells (1.4 × 10^5 cells/well) were grown in a 96-well plate in minimal essential medium (MEM) supplemented with 20% fetal bovine serum (FBS; Gibco), 1% non-essential amino acid (NEAA, Invitrogen Life Technologies) and 1mM sodium pyruvate, at 37 °C in a humidified 5% CO2 incubator for 48 h until a complete monolayer was formed. For LDH assay, cells were washed twice with media containing no FBS/no antibiotics and incubated with 150 µL of fresh media containing 100 μM of each compound at 37 °C for 24 h in a humidified 5% CO2 incubator. Fifty microliters of supernatant was analyzed using LDH Cytotoxicity Assay Kit (Thermo Scientific).

[10] = tested on: APEC O78 in THP-1 cells; experiment: Intracellular survival assay, APEC O78 in THP-1 cells; assay type: cell-based, avian pathogenic E. coli (APEC) O78; conditions: MOI 100, 100 µM, 6 h, vs DMSO treated control
Procedure: as §1
as §2, with “In order to differentiate the THP-1 monocyte to macrophage, 100 nM phorbol myristate acetate (PMA; Sigma-Aldrich) was added to the media.” left out

[11] = tested on: HD-11 cells; experiment: Lactate dehydrogenase (LDH) cytotoxicity assay, HD-11; assay type: cell-based, chicken; conditions: 100 µM, 24 h
Procedure: as §3
Toxicity was also determined on HD-11 cells (CVCL-4685). The HD-11 cells (1.4 × 10^5 cells/well) were grown in Iscove’s modified Dulbecco’s medium (IMEM; Gibco) supplemented with 2 mM glutamine and 10% FBS at 37 °C in a humidified 5% CO2 for 48 h until a monolayer was completely formed. LDH assay was conducted as described above.

For `COCCN1CCC(CN(Cc2ccncc2)Cc2ccccc2Cl)CC1` [C1, (2-chlorobenzyl){[1-(2-methoxyethyl)-4-piperidinyl]methyl}(4-pyridinylmethyl)amine], the “reduction of intracellular survival of APEC O1” value (“reduction … of APEC O1” for short) [1] was “up to 0.9 log” and the “survival of larvae treated with compound (toxicity)” value [2] was 100%.

For `NC(=O)c1ccccc1Nc1cccc(C(F)(F)F)c1` [C3, 2-{[3-(trifluoromethyl)phenyl]amino}benzamide], the “clearance of intracellular APEC O1” value [3] was 100%, the “reduction … of APEC O1” value [3] was ~ 4 logs and the “reduction … of APEC O1” value [1] was “up to 0.9 log”. For the same compound, the hemolytic activity [4] was 20.6% and the hemolytic activity [5] was 6.4%.

For `Fc1ccc(CN2CCCN(Cc3nc(-c4ccc(C(F)(F)F)cc4)no3)CC2)cc1` [C9, 1-(4-fluorobenzyl)-4-({3-[4-(trifluoromethyl)phenyl]-1,2,4-oxadiazol-5-yl}methyl)-1,4-diazepane], the “clearance of intracellular APEC O78” value [6] was 100%, the “reduction of intracellular survival of APEC O78” value (“reduction … of APEC O78” below) [6] was ~ 4 logs and the “clearance of intracellular APEC O2” value [7] was 100%. The “reduction of intracellular survival of APEC O2” value [7] was 4 logs, the “reduction … of APEC O1” value [1] was “up to 0.9 log” and the inhibition at 50 µM [8] was 25%.

Work on `O=C(CCN1CCN(c2ccccc2F)CC1)Nc1ccc(Br)cc1` [C7, N-(4-bromophenyl)-3-[4-(2-fluorophenyl)-1-piperazinyl]propanamide] yielded an inhibition at 50 µM [8] of 25%.

In the case of `OCCC1CN(C2CCN(c3ccccc3)CC2)CCN1CCCc1ccccc1` (stereo not shown) [C10, 2-[4-(1-phenyl-4-piperidinyl)-1-(3-phenylpropyl)-2-piperazinyl]ethanol], the “cytotoxicity (LDH release)” value [9] is reported as 27%, the “clearance of intracellular APEC O78” value [6] is reported as 100% and the “reduction … of APEC O78” value [6] is reported as ~ 4 logs. The “reduction … of APEC O1” value [3] was “up to 0.9 logs”, the “reduction … of APEC O78” value [10] was “up to 0.7 logs” and the “clearance of intracellular APEC O2” value [7] was 100%. For the same compound, the “reduction of intracellular survival of APEC O2” value [7] was 4 logs, the “reduction … of APEC O1” value [1] was “up to 0.9 log” and the inhibition at 50 µM [8] was 25%.

With `O=[N+]([O-])c1cccc(S(=O)(=O)Nc2ccc(Br)cc2)c1` [C6, N-(4-bromophenyl)-3-nit robenzenesulfonamide] the “cytotoxicity (LDH release)” value [9] was 27% and the “survival of larvae treated with compound (toxicity)” value [2] was 100%.

`Cc1ccc(CN2CCN(CCCc3ccccc3)CC2)cc1` [C5, 1-(4-methylbenzyl)-4-(3-phenylpropyl)piperazine] was tested, and the “cytotoxicity (LDH release)” value [11] was “less than 10%”.

`CS/C(N)=N/N=C/c1cc(C)ccc1O` [C4, methyl N'-(2-hydroxy-5-methylbenzylidene)h ydrazonothiocarbamate] was tested, and the “cytotoxicity (LDH release)” value [9] was 12% and the “reduction … of APEC O78” value [6] was “up to 1 logs”.

`CCc1ccccc1Nc1nc(-c2c(C)nc3ccccn23)cs1` [C8, N-(2-ethylphenyl)-4-(2-methylimidazo[1,2-a]pyridin-3-yl)-1,3-thiazol-2-amine] was tested, and the “cytotoxicity (LDH release)” value [9] was 2%, the “cytotoxicity (LDH release)” value [11] was “less than 10%” and the “reduction … of APEC O78” value [6] was “up to 1 logs”.
